Results taken from patent publication US6809112B2, “Method of treating sexual disturbances” (priority 1999, dated 2004).

Key:
Format in all cases: in vivo, human
[1] = tested on: patient with Hypoactive Sexual Desire Disorder; test: Treatment of Hypoactive Sexual Desire Disorder in a patient (Examples A, I); conditions: 1 mg/dose 0.5 hr before sexual activity, examined after one month, patient report
Text: A 44 kg, patient is referred by their psychologist for evaluation for and medical treatment of hypoactive sexual desire disorder. The patient recently began to co-habitate with a person. They consulted a clinical psychologist because of distress over frequent arguments with their partner. These arguments concern their frustration that their partner is unwilling to marry them and the partner's accusations that they are sexually unresponsive and “boring in bed.” The patient reports that although they desire to continue the relationship, they have little or no interest in sexual activity with this partner. The partner initiates all sexual activity in the relationship and they comply so that the relationship will continue. They state that their partner desires sexual intercourse about once per day. Occasionally, the couple's frequency of sexual intercourse is as much as twice per day. […] They currently take no prescription drugs other than low dose birth control pills. […] The patient is diagnosed as having Hypoactive Sexual Desire Disorder of acquired onset due to situational factor (Diagnostic and Statistical Manual of Mental Disorders, Fourth Edition, 1994). (5R)-(methylamino)-5,6-dihydro-4H-imidazo[4,5,1-ij]quinolin-2(1H)-one (Z)-2-butenedioate (1:1) is prescribed at 1 mg/dose to be taken 0.5 hr before the patient intends to engage in sexual activity. The patient is instructed that they may use the drug on a daily basis, if they and their partner desire sexual activity at this frequency. They are also instructed that on occasions they may use the drug twice in a single day if this is the intended frequency of intercourse. The patient is examined after one month. They report that they use the drug once, and occasionally twice, per day. […] They also report that they and their partner argue less frequently and that their partner no longer accuses them of being disinterested in sexual relations. The patient is instructed to continue using the drug.

[2] = tested on: patient with Male Erectile Disorder; test: Treatment of Male Erectile Disorder (Examples C, K); conditions: 3 mg/dose 0.5 hr before sexual activity; examined after one month; patient report
Text: A 75 kg, patient has been married for 20 years. They present complaining that for the past six months they have had difficulty maintaining an erection until completion of sexual intercourse. They develop an adequate erection at the beginning of sexual activity but detumescence occurs when they attempt penetration. Their spouse is their only current sexual partner. They report that their spouse is patient and understanding of their problem but that they are embarrassed, feels that they are a failure, and is growing progressively more angry and sad about their inability to maintain an erection. They masturbate approximately twice each month. During masturbation, they are usually able to maintain an erection until they ejaculate. […] The only remarkable findings were a supine diastolic blood pressure 94 mm mercury and a total plasma cholesterol level of 230 mg/dl. They were instructed to follow the American Heart Association dietary recommendations and to reduce their body weight by 5 kg. They currently take no prescription drugs. […] The patient is diagnosed as having Male Erectile Disorder that is acquired and situational. The etiology is most likely due to psychological factors, although combined factors, e.g., mild hypertension or atherosclerosis, may contribute (Diagnostic and Statistical Manual of Mental Disorders, Fourth Edition, 1994). (5R)-(methylamino)-5,6-dihydro-4H-imidazo[4,5,1-ij]quinolin-2(1H)-one (Z)-2-butenedioate (1:1) is prescribed at 3 mg/dose to be taken 0.5 hr before the patient intends to engage in sexual activity. The patient is instructed that they may use the drug on a daily basis, if this is the intended frequency of sexual activity. The patient is examined after one month. They report that they use the drug prior to intercourse. […] The patient is instructed to continue using the drug.

[3] = tested on: patient with Female Orgasmic Disorder; test: Treatment of Female Orgasmic Disorder (Examples D, L); conditions: 1 mg/dose about 0.5 hr before sexual activity; examined after two months; patient report
Text: A 50 kg, patient who married three months before presenting for treatment. […] They were not sexually active prior to marriage. They report that their spouse had multiple premarital partners and that they report all their past partners had orgasms. The patient is upset by their inability to have orgasms and feels they are an poor spouse. On questioning they report that they are “too fat” although their weight is appropriate for their height. […] They currently take no prescription drugs other than low dose birth control pills. […] The patient is diagnosed as having Female Orgasmic Disorder that is situational due to psychological factors (Diagnostic and Statistical Manual of Mental Disorders, Fourth Edition, 1994). (5R)-(methylamino)-5,6-dihydro-4H-imidazo[4,5,1-ij]quinolin-2(1H)-one (Z)-2-butenedioate (1:1) is prescribed at 1 mg/dose to be taken about 0.5 hr before the patient intends to engage in sexual activity. The patient is instructed that they may use the drug on a daily basis, if this is the intended frequency of sexual activity. The patient is examined after two months. They report that they use the drug prior to intercourse. […] It is recommended that the patient continue to use the drug for an additional six months, then stop taking the drug for a period of two weeks to determine whether they might now be able to have orgasms in the absence of drug therapy.

[4] = tested on: patient with Male Orgasmic Disorder; test: Treatment of Male Orgasmic Disorder (Examples E, M); conditions: 3 mg/dose 0.5-1 hr before sexual activity; examined after one month; patient report
Text: A 80 kg, person has been married for 15 years. They present complaining that they have begun to have difficulty achieving an orgasm during vaginal intercourse with their spouse. On most occasions they are unable to ejaculate during sexual intercourse. Infrequently, they are able to ejaculate during sexual, but only after very prolonged vaginal intercourse. […] Their further reports that their spouse finds the prolonged intercourse that they require to ejaculate uncomfortable and has begun avoiding sexual relations. They report that they ejaculate normally when they masturbate. […] They currently take no prescription drugs. […] The patient is diagnosed as having Male Orgasmic Disorder that is acquired and situational due to psychological factors (Diagnostic and Statistical Manual of Mental Disorders, Fourth Edition, 1994). (5R)-(methylamino) -5,6-dihydro-4H-imidazo[4,5,1-ij]quinolin-2(1H)-one (Z)-2-butenedioate (1:1) is prescribed at 3 mg/dose to be taken 0.5-1 hr before the patient intends to engage in sexual activity. The patient is instructed that they may use the drug on a daily basis, if this is the intended frequency of sexual activity. The patient is examined after one month. […] The patient is instructed to continue using the drug.

SMILES	treatment effect (sexual relationship) [1]	treatment effect (quality of sexual relationship) [2]	treatment effect (sexual relationship) [3]	treatment effect (quality of sexual relationship) [4]	frequency of sexual fantasies ([1]; once, occasionally twice, per day)	initiation of sexual activity [1]	ejaculation [2]	maintenance of erection [2]	orgasm during sexual intercourse [3]	ejaculation during vaginal intercourse [4]
CN[C@@H]1Cc2cccc3[nH]c(=S)n(c23)C1 [(5R)-5-(Methylamino)-5,6-dihydro-4H-imidazo[4,5,1-ij]quinoline-2(1H)-thione]	same positive treatment effect	same positive treatment effect	same positive treatment effect	same positive treatment effect						
CN[C@@H]1Cc2cccc3[nH]c(=O)n(c23)C1.O=C(O)/C=C\C(=O)O [(5R)-(methylamino)-5,6-dihydro-4H-imidazo[4,5,1-ij]quinolin-2(1H)-one (Z)-2-butenedioate (1:1)]	enjoys an improved sexual relationship with their partner	markedly improved	enjoys an improved sexual relationship with their partner	markedly improved	3-4 occasions per week	occasionally initiates sexual activity with their partner	usually experiences intra-vaginal ejaculation	maintains an erection for a satisfactory period after vaginal penetration in almost every attempt at intercourse	has an orgasm during sexual intercourse on most occasions	ejaculates during vaginal intercourse on all occasions
